The results in this text go back to patent publication US9193954B2, “Methods and compositions for mesenchymal stem cell proliferation” (priority 2011, dated 2015).

Each structure is given as a SMILES string. Some results are limits rather than exact numbers.

Assay type in all cases: cell-based, human
The subject of data set [1] is markers of undifferentiated stem cells, Sox2, Nanog, and Oct4. Nature of the data set: RT-PCR of Sox2, Nanog, Oct4 in PEG-encapsulated BIO-treated hMSCs. The settings on record: for Nanog gene expression relative to untreated controls / Oct4 gene expression relative to untreated controls / Sox2 gene expression relative to untreated controls: 5 μM BIO. Here is the method: RT-PCR was used to assess gene expression of hMSCs over time. At days: 0 (before BIO treatment), 1, 3, 6, 19, 29, 34, 37, and 41, samples were lysed and total RNA was isolated (ENZA Total RNA Kit, Omega). Reverse transcription was performed using the iScript cDNA Synthesis Kit (Bio-Rad). The reverse transcription reaction was incubated at 25° C. for 5 min, 42° C. for 30 min, and terminated at 85° C. for 5 min. PCR was performed using a CFX96 Real-Time PCR System (Bio-Rad), monitoring sybrgreen products (SsoFastEvaGreen Master Mix, Bio-Rad). Primers for β-actin, sex determining region Y-box 2 (Sox2), Nanog homobox (Nanog), and octamer-binding transcription factor 4 (Oct4), core-binding factor subunit alpha-1 (Cbfa1, also known as Runx2), sex determining region Y-box 9 (Sox9), and peroxisome proliferator-activated receptor gamma (PPARγ) were used (Table 2). The PCR parameters used were as follows: hold at 95° C. for 5 min, followed by 40 cycles of: 95° C. for 15 sec denaturation, 60° C. (β-actin, Sox2, Sox9), or 57° C. (Nanog, Oct4, Cbfa1), or 55° C. (PPARγ) for 60 sec annealing, and 72° C. for 20 sec extension. Threshold cycle (CT) analysis was used to quantify PCR products normalized to the cellular housekeeping gene β-actin. Relative gene quantification was performed using the Pfaffl Method, taking into account the variation between primer efficiencies.
(§1) A 10 wt % solution of PEGDM was prepared in phosphate buffered saline (PBS) with 2.0 mM acryloyl-PEG-RGDS. The photoinitiator lithium phenyl-2,4,6-trimethylbenzoylphosphinate (LAP) was synthesized using conventional techniques and added at a final concentration of 0.05 wt %. Trypsinized hMSCs were centrifuged to form pellets and counted. The PEG macromer solution was added to the cell pellet, and volumes were adjusted to achieve a final cell concentration of 25 million cells/mL. Using a sterile 1 mL syringe with the tip removed as a mold, 40 μL of PEG/cell solution was added and exposed to long-wavelength 365 nm light (5 mW/cm^2 intensity) for 10 min at room temperature. After photopolymerization was complete, the cell/hydrogel disks were removed from the syringes and placed in 24-well tissue culture plates (Greiner Bio-One, Monroe, N.C.) with growth media. The constructs were cultured up to 3 weeks at 37° C. and 5% CO2 with media changes occurring every three days.
(§2) Encapsulated hMSC viability, BIO treatment, and assessment of gene expression was performed as described in Section 2.3 with exception of cell lysate collection. For assessment of gene expression hMSC-PEG constructs were homogenized in lysis buffer and centrifuged to pellet polymerized PEG. The supernatant was then collected for analysis.

For data set [2], the system named is stem markers Sox2 and Nanog. Nature of the data set: RT-PCR of stem markers Sox2 and Nanog at end of 33 day culture, normalized to GAPDH (Example 1). The conditions noted are these: end of 33 day time course. As for the experimental part:
FIG. 2 RNA was harvested from BIO treated hMSCs at day […] and analyzed for expression of stem markers Sox2 and Nanog. Expression was normalized to housekeeping gene GAPDH. Error bars shown are standard error (n=3).
At the end of the 33 day experimental time course RNA was isolated (Omega E.N.Z.A total RNA kit) from the hMSC specimens (n=3) and reverse transcription (Bio-Rad iSCRIPT cDNA synthesis kit) was performed to yield cDNA. Forward and reverse primers (Table 1.) for the stem markers Sox2 and Nanog as well as the housekeeping gene, GAPDH (Glyceraldehyde 3-phosphate dehydrogenase) were then used to quantify gene expression. Expressions of genes of interest (Sox2 and Nanog) were normalized to control (GAPDH). We observed a dose dependent increase in both Sox2 and Nanog gene expression. Sox2 expression increased ˜30% and ˜50% with 2 μM and 5 μM BIO treatment, while Nanog expression increased >100% with 5 μM BIO treatment (FIG. 2).

In data set [3] the test system is PEG-encapsulated hMSCs. Nature of the data set: PEG-encapsulated hMSC proliferation by total cellular DNA concentration (PicoGreen). Here is the method: (§3) FIG. 7 Schematic representation of 18 day PEG-encapsulated hMSC culture after 24 hr exposure to BIO-containing media (A). Cell DNA concentration was quantified on days 0, 1, 5, 12, and 18 and shown to undergo a dose-dependent, BIO-mediated increase in proliferation (B), as previously shown in two-dimensional cultures. Representative LIVE/DEAD confocal images of PEG-encapsulated BIO-treated hMSC cultures (C).
as §1, with “After photopolymerization was complete, the cell/hydrogel disks were removed from the syringes and placed in 24-well tissue culture plates (Greiner Bio-One, Monroe, N.C.) with growth media. The constructs were cultured up to 3 weeks at 37° C. and 5% CO2 with media changes occurring every three days.” left out
Encapsulated hMSC proliferation was assessed using total cellular DNA concentration, assuming constant DNA per cell, using a Quant-iT PicoGreen dsDNA Assay Kit (Invitrogen). […]

For data set [4], the system named is PEG-encapsulated hMSCs. Nature of the data set: LIVE/DEAD confocal imaging of PEG-encapsulated BIO-treated hMSC cultures. The settings on record: no detectable dead cells.
Description: as §3, §2

The next data set relates to hMSCs. Nature of the data set: hMSC cell layer thickness by confocal microscopy. The conditions noted are these: for cell layer thickness: day 40. As for the experimental part: hMSC cell layer thickness was measured using the z-directional controls of a FV1000 Olympus Laser Scanning Confocal Microscope. On days 1, 14, and 40 cells, seeded on optically clear glass bottom 24-well culture plates (MatTek, Ashland, Mass.) were stained using a fluorescent LIVE/DEAD Viability/Cytotoxicity kit (Invitrogen). The focal plane of the microscope was adjusted to the cell-plate interface and set to zero. Using the z-directional controls the focal plane was raised until the live fluorescently stained cells were no longer visible at which point the cell layer thickness was recorded.

In the case of `O=C1Nc2cc(Br)ccc2/C1=C1/Nc2ccccc2/C1=N\O` [BIO, 6-bromoindirubin-3′-oxime], the “time at which Sox2, Nanog, and Oct4 expression returned to basal levels” value in data set [1] (PEG hydrogel-encapsulated hMSCs) is around 18 days. Further, in data set [1] (day 1, PEG-encapsulated), the “Nanog gene expression relative to untreated controls” value stood at 2.4 fold, the “Oct4 gene expression relative to untreated controls” value is given as 3.5 fold and the “Sox2 gene expression relative to untreated controls” value worked out at 2.2 fold. Besides, in data set [1] (day 12, PEG-encapsulated), the “Nanog gene expression relative to untreated controls” value came out at 2.7 fold, the “Oct4 gene expression relative to untreated controls” value is listed as 4.3 fold and the “Sox2 gene expression relative to untreated controls” value came to 4.1 fold. Also, the Sox2 expression increase in data set [2] (2 μM BIO) is given as around 30%. In data set [2] (5 μM BIO), this compound came in with a Nanog expression increase above 100% and a Sox2 expression increase of around 50%. Further, the “3D proliferation relative to untreated control” value in the data set with PEG-encapsulated hMSCs [3] (5 uM BIO) stood at 120%. The “increase in proliferation (normalized DNA concentration) versus 0 μM” value in the data set with PEG-encapsulated hMSCs [3] (5 μM BIO, at both days 12 and 18, PEG hydrogels) was found to be 20%. For the same compound, the “live cells (LIVE/DEAD imaging)” value in the data set with PEG-encapsulated hMSCs [4] was around 100%. Besides, in the data set on hMSCs (2 μM BIO), the cell layer thickness was found to be 23.5 μm. Moreover, the cell layer thickness with hMSCs (5 μM BIO) was 24.0 μm. In the data set with hMSCs (day 0 and 14), the “cell layer thickness versus untreated control” value is reported as “no statistically significant differences”.
